Experimental data: patent publication US20230193350A1, “METHOD FOR DIAGNOSING AND TREATING BLOOD CANCER” (Ohara Pharmaceutical Co., Ltd., priority 2020, published 2023)

Columns and labels:
Type in all cases: cell-based
MT-1 cells = experiment: Proliferation of MT-1 cells (Cell Countdown Kit-8, formazan absorbance); conditions: 4 days, FIG. 3
Description: MT-1 cells (ATL-derived cell lines) were purchased from JCRB Cell Bank. MT-1 cells were seeded on a 24-well plate at 0.4×10^5 cells/0.9 mL/well and cultured for 3 hours in an RPMI1640 culture solution comprising 10% fetal bovine serum (FBS) and 1% penicillin-streptomycin in an environment of 37° C. and 5% CO2. Then, OR21, a DNA methyl transferase inhibitor and/or EPZ-6438 or DS-3201b, histone methyl transferase inhibitors were dissolved in the same culture solution, and 0.1 mL thereof was added to each well, and cultured for 4 days while exchanging with a fresh culture solution comprising each inhibitor every two days. The final concentrations of the inhibitors in the culture solution were 0.5 μM for OR21, 2.5 μM for EPZ-6438, and 0.1 μM, 0.5 μM, and 2.5 μM for DS-3201b. In addition, groups of single and combined additions of each inhibitor were provided. The effect of each inhibitor on cell proliferation was measured using Cell Countdown Kit-8 (Dojindo Laboratories). The water-soluble formazan in each well produced from reduction of tetrazolium salt […] was measured at two wavelength (450 nm/620 nm) using a plate reader (Varioskan Flash, Thermo-Fisher Scientific). The results are expressed as relative values with the absorbance of the wells in which no inhibitor was added as 100%.

DUSP5 mRNA = experiment: Expression amount of DUSP5 mRNA in MT-1 cells by RT-PCR; conditions: 4 days culture, FIG. 2A
Description: (§1) MT-1 cells (ATL-derived cell lines) were purchased from JCRB Cell Bank and cultured in an RPMI1640 culture solution comprising 10% fetal bovine serum (FBS) and 1% penicillin-streptomycin in an environment of 37° C. and 5% CO2. The culture was started by additions of OR21, a DNA methyl transferase inhibitor and/or EPZ-6438, a histone methyl transferase inhibitor to a culture solution of MT-1 cells, exchanged with a fresh culture solution comprising the inhibitors after 2 days, and further cultured for 2 days. After culturing, the cells were collected and total RNA was extracted, and the expression amount of DUSP5 mRNA was measured by RT-PCR using SYBR @ Green (Takara Bio).

DUSP5 protein = experiment: Expression amount of DUSP5 protein in MT-1 cells by Western blotting; conditions: 4 days culture, FIG. 2B
Description: as §1, with “dissolved,” for “total RNA was extracted,”, “protein” for “mRNA”, “Western blotting.” for “RT-PCR using SYBR @ Green (Takara Bio).”

Cc1cc(C)c(CNC(=O)c2cc(Cl)c3c(c2C)O[C@@](C)([C@H]2CC[C@H](N(C)C)CC2)O3)c(=O)[nH]1.Cc1ccc(S(=O)(=O)O)cc1 [DS-3201b, 4-methylbenzene-1-sulfonic acid (2R)-7-chloro-2-[(trans)-4-(dimethylamino)cyclohexyl]-N-[(4,6-dimethyl-2-oxo-1,2-dihydropyridin-3-yl)methyl]-2,4-dimethyl-2H-1,3-benzodioxole-5-carboxamide]
proliferation of MT-1 cells (MT-1 cells; DS-3201b 0.1 μM to 2.5 μM): hardly affected

CCN(c1cc(-c2ccc(CN3CCOCC3)cc2)cc(C(=O)NCc2c(C)cc(C)[nH]c2=O)c1C)C1CCOCC1 [EPZ-6438, N-[(4,6-dimethyl-2-oxo-1,2-dihydropyridin-3-yl)methyl]-5-[ethyl(tetrahydro-2H-pyran-4-yl)amino]-4-methyl-4′-(morpholin-4-ylmethyl) biphenyl-3-carboxamide]
DUSP5 mRNA expression (DUSP5 mRNA; EPZ-6438 at 0.5 μM and 2.5 μM): almost no effect | proliferation of MT-1 cells (MT-1 cells; EPZ-6438 2.5 μM): hardly affected | expression amount of DUSP5 protein (DUSP5 protein; EPZ-6438 2.5 μM): almost no effect

CC[Si](CC)(CC)OC[C@H]1O[C@@H](n2cnc(N)nc2=O)C[C@@H]1O [OR21, 5′-O-triethylsilyl-2′-deoxy-5-azacytidine]
DUSP5 mRNA expression (DUSP5 mRNA; OR21 at 0.1 μM and 0.5 μM): enhanced DUSP5 mRNA expression in a concentration-dependent manner | proliferation of MT-1 cells (MT-1 cells; OR21 0.5 μM): exhibited an effect of inhibiting proliferation | expression amount of DUSP5 protein (DUSP5 protein; OR21 0.5 μM): apparent increase
